From article PMC7356589, “Hybrid Gold(I) NHC-Artemether Complexes to Target Falciparum Malaria Parasites” (Molecules, 2020)
Where two headings read alike, the source gives them in different places.

Experiments:
[1] = tested on: P. falciparum strain F32-TEM (F32-Tanzania); assay: In vitro antiplasmodial activity (SYBR Green fluorescence and [3H] hypoxanthine assays); format: cell-based, Plasmodium falciparum
Procedure: In vitro antiplasmodial activities of the synthesized hybrid molecules were evaluated against the P. falciparum strain F32-TEM (corresponding to the parental strain F32-Tanzania). Each molecule was tested at least in three independent experiments (except Aubis(5-Bn), tested twice) by a SYBR Green Fluorescence assay but also at least once with the standard chemosensitivity assay recommended by the WHO and based on the incorporation of [^3H] hypoxanthine.
For the SYBR Green Fluorescence assay, ring stage parasites were treated with the drugs for 48 h. Then, the pellets were washed twice with PBS and frozen at −20 °C. Thawed plates were incubated for 2 h at room temperature with the SYBR Green (Thermo-Fisher, Illkirch, France) lysis buffer (20 mm Tris base pH 7.5, 5 mm EDTA, 0.008% w/v saponin, 0.08% w/v Triton X-100). The plates were then read using a fluorescence plate reader (FLx800, BioTek, Illkirch, France) at an excitation wavelength of 485 nm and 535 nm for the emission wavelength. The IC50 values (concentration inhibiting 50% of the parasite’s growth) were determined using GraphPad Prism software 7 (GraphPad Software, San Diego, CA, USA).
For [^3H] hypoxanthine assay, ring stage parasites were incubated with the drug dilutions for 24 h, then, [^3H] hypoxanthine (50 μL/0.25 μCi; Perkin-Elmer, Courtaboeuf, France) was added for another 24 h period. After that, plates were frozen at −20 °C. The next step is to thaw the plates and to collect the nucleic acids. Tritium incorporation was then determined thanks to a β-counter (Perkin-Elmer, Courtaboeuf, France).
The antiplasmodial activities reported in Table 1 correspond thus to the mean of IC50 values from at least 4 independent experiments acquired by the two methods, SYBR Green and radioactivity.

Vero cell line = assay: Cytotoxicity on Vero cells (MTT); format: cell-based, monkey; settings: for IC50: Vero cells, 48 h, MTT, read-out: Cytotoxicity on Vero Cells IC50 ± SEM
Procedure: The cells were cultured in MEM medium (Dutscher, Brumath, France) supplemented with 10% fetal bovine serum (Dutscher), 0.7 mM glutamine and 100 μg/mL gentamicin. The cells were seeded at 10^4 cells per well in a 96-well plates and incubated during 24 h. Then, cells were incubated for additional 48 h with the drugs. […] Subsequently, DMSO was added to the wells containing the cells and MTT to dissolve the formed crystals. The plates were then read to determine the absorbance at wavelength of 540 nm (µQuant, BioTek, Illkirch, France). Cell proliferation was calculated from at least three independent experiments using GraphPad Prism software 7 (GraphPad Software, San Diego, CA, USA). The cytotoxic/antiplasmodial activity ratio corresponds to the selectivity index.

[2] = strain F32-Tanzania (F32-TEM), mean of at least 4 experiments, SYBR Green and radioactivity assays, 48 h, read-out: Antiplasmodial Activity on P. falciparum IC50 ± SEM
[3] = Plasmodium falciparum, F32, 48 h, strain F32-Tanzania (F32-TEM), mean of at least 4 experiments, SYBR Green and radioactivity assays, read-out: Antiplasmodial Activity on P. falciparum IC50 ± SEM

For `C[C@@H]1CCC2[C@@H](C)[C@@H](OCCCn3cc[n+](-c4ccc5ccccc5n4)[c]3[Au-][c]3n(CCCO[C@H]4O[C@@H]5O[C@@]6(C)CCC7[C@H](C)CCC([C@H]4C)[C@]75OO6)cc[n+]3-c3ccc4ccccc4n3)O[C@@H]3O[C@@]4(C)CCC1[C@@]23OO4.[Cl-]` (some centres unmarked) [Aubis(3-Quin)], the IC50 [1, 2] was 0.023 ± 0.008 µM and the IC50 (Vero cell line) was 1.2 µM.

`CO[C@H]1O[C@@H]2O[C@@]3(C)CC[C@H]4[C@H](C)CC[C@@H]([C@H]1C)[C@@]24OO3` [Artemether] was tested, and the IC50 ([1]; Plasmodium falciparum, F32, 48 h, read-out: Antiplasmodial Activity on P. falciparum IC50 ± SEM, strain F32-Tanzania (F32-TEM), mean of at least 4 experiments, SYBR Green and radioactivity assays) was 0.0061 ± 0.001 µM and the “Selectivity Index Vero Cells/P. falciparum” value (Vero cell line; cytotoxic/antiplasmodial activity ratio) was 35 000.

`C[C@@H]1CCC2[C@@H](C)[C@@H](OCCCCCn3cc[n+](-c4ccc5ccccc5n4)[c]3[Au-][c]3n(CCCCCO[C@H]4O[C@@H]5O[C@@]6(C)CCC7[C@H](C)CCC([C@H]4C)[C@]75OO6)cc[n+]3-c3ccc4ccccc4n3)O[C@@H]3O[C@@]4(C)CCC1[C@@]23OO4.[Cl-]` (some centres unmarked) [Aubis(5-Quin)] showed an IC50 [1, 2] of 0.038 ± 0.009 µM and an IC50 (Vero cell line) of 2 µM.

With `CC(C)[n+]1ccn(CCCO[C@H]2O[C@@H]3O[C@@]4(C)CCC5[C@H](C)CCC([C@H]2C)[C@]53OO4)c1` (stereo partly drawn) [L3-iPr, 3′-Isopropyl-1′-[10β-(20-propoxy)dihydroartemisinin]1H-imidazol-3-ium bromide] the IC50 [1, 3] was 0.335 ± 0.028 µM.

With `C[C@@H]1CCC2[C@@H](C)[C@@H](OCCCn3cc[n+](C)c3)O[C@@H]3O[C@@]4(C)CCC1[C@@]23OO4` (stereo partly drawn) [L3-Me, 3′-methyl-1′-[10β-(20-propoxy)-dihydroartemisinin]1H-imidazol-3-ium bromide] the IC50 [1, 3] was 0.935 ± 0.117 µM.

In the case of `C[C@@H]1CCC2[C@@H](C)[C@@H](OCCCCn3cc[n+](Cc4ccccc4)[c]3[Au-][c]3n(CCCCO[C@H]4O[C@@H]5O[C@@]6(C)CCC7[C@H](C)CCC([C@H]4C)[C@]75OO6)cc[n+]3Cc3ccccc3)O[C@@H]3O[C@@]4(C)CCC1[C@@]23OO4.[Cl-]` (some centres unmarked) [Aubis(4-Bn)], the IC50 [1, 2] is reported as 0.04 ± 0.021 µM and the IC50 (Vero cell line) is reported as 0.7 µM.

Molecule `C[C@@H]1CCC2[C@@H](C)[C@@H](OCCCn3cc[n+](Cc4ccccc4)c3)O[C@@H]3O[C@@]4(C)CCC1[C@@]23OO4` (stereo partly drawn) [L3-Bn, 3′-Benzyl-1′-[10β-(20-propoxy)dihydroartemisinin]1H-imidazol-3-ium bromide] has an IC50 [1, 3] of 0.351 ± 0.056 µM.

For `C[C@@H]1CCC2[C@@H](C)[C@@H](OCCCCn3cc[n+](C)c3)O[C@@H]3O[C@@]4(C)CCC1[C@@]23OO4` (stereo partly drawn) [L4-Me, 3′-methyl-1′-[10β-(21-butoxy)-dihydroartemisinin]1H-imidazol-3-ium bromide], the IC50 [1, 3] was 0.84 ± 0.064 µM.

`C[C@@H]1CCC2[C@@H](C)[C@@H](OCCCCCn3cc[n+](C)c3)O[C@@H]3O[C@@]4(C)CCC1[C@@]23OO4` (stereo partly drawn) [L5-Me, 3′-methyl-1′-[10β-(22-pentoxy)-dihydroartemisinin]1H-imidazol-3-ium bromide] gave an IC50 [1, 3] of 0.172 ± 0.022 µM.

`Cc1cc(C)c(-[n+]2ccn(CCCCO[C@H]3O[C@@H]4O[C@@]5(C)CCC6[C@H](C)CCC([C@H]3C)[C@]64OO5)c2)c(C)c1` (stereo partly drawn) [L4-Mes, 3′-Mesityl-1′-[10β-(21-butoxy)dihydroartemisinin]1H-imidazol-3-ium bromide] gave an IC50 [1, 3] of 0.219 ± 0.018 µM.

In the case of `C[C@@H]1CCC2[C@@H](C)[C@@H](OCCCn3cc[n+](Cc4ccccc4)[c]3[Au-][c]3n(CCCO[C@H]4O[C@@H]5O[C@@]6(C)CCC7[C@H](C)CCC([C@H]4C)[C@]75OO6)cc[n+]3Cc3ccccc3)O[C@@H]3O[C@@]4(C)CCC1[C@@]23OO4.[Cl-]` (some centres unmarked) [Aubis(3-Bn)], the IC50 [1, 2] is reported as 0.022 ± 0.003 µM and the IC50 (Vero cell line) is reported as 0.3 µM.

In the case of `Cc1cc(C)c(-[n+]2ccn(CCCCO[C@H]3O[C@@H]4O[C@@]5(C)CCC6[C@H](C)CCC([C@H]3C)[C@]64OO5)[c]2[Au-][c]2n(CCCCO[C@H]3O[C@@H]4O[C@@]5(C)CCC6[C@H](C)CCC([C@H]3C)[C@]64OO5)cc[n+]2-c2c(C)cc(C)cc2C)c(C)c1.[Cl-]` (some centres unmarked) [Aubis(4-Mes)], the IC50 [1, 2] is reported as 0.038 ± 0.003 µM and the IC50 (Vero cell line) is reported as 0.7 µM.

Work on `C[C@@H]1CCC2[C@@H](C)[C@@H](OCCCCn3cc[n+](-c4ccc5ccccc5n4)c3)O[C@@H]3O[C@@]4(C)CCC1[C@@]23OO4` (stereo partly drawn) [L4-Quin, 3′-Quinolin-2-yl-1′-[10β-(21-butoxy)dihydroartemisinin]1H-imidazol-3-ium bromide] yielded an IC50 [1, 3] of 0.33 ± 0.037 µM.

`CC(C)[n+]1ccn(CCCO[C@H]2O[C@@H]3O[C@@]4(C)CCC5[C@H](C)CCC([C@H]2C)[C@]53OO4)[c]1[Au-][c]1n(CCCO[C@H]2O[C@@H]3O[C@@]4(C)CCC5[C@H](C)CCC([C@H]2C)[C@]53OO4)cc[n+]1C(C)C.[Cl-]` (some centres unmarked) [Aubis(3-iPr)] gave an IC50 [1, 2] of 0.013 ± 0.005 µM and an IC50 (Vero cell line) of 0.7 µM.

`CC(=O)OC[C@H]1O[C@@H]([S-])[C@H](OC(C)=O)[C@@H](OC(C)=O)[C@@H]1OC(C)=O.CCP(CC)CC.[Au+]` [Auranofin, reference compound] gave an IC50 [1, 2] of 1.5 µM.

`Cc1cc(C)c(-[n+]2ccn(CCCCCO[C@H]3O[C@@H]4O[C@@]5(C)CCC6[C@H](C)CCC([C@H]3C)[C@]64OO5)[c]2[Au-][c]2n(CCCCCO[C@H]3O[C@@H]4O[C@@]5(C)CCC6[C@H](C)CCC([C@H]3C)[C@]64OO5)cc[n+]2-c2c(C)cc(C)cc2C)c(C)c1.[Cl-]` (some centres unmarked) [Aubis(5-Mes)] gave an IC50 [1, 2] of 0.1 ± 0.012 µM.

`C[C@@H]1CCC2[C@@H](C)[C@@H](OCCCCCn3cc[n+](Cc4ccccc4)[c]3[Au-][c]3n(CCCCCO[C@H]4O[C@@H]5O[C@@]6(C)CCC7[C@H](C)CCC([C@H]4C)[C@]75OO6)cc[n+]3Cc3ccccc3)O[C@@H]3O[C@@]4(C)CCC1[C@@]23OO4.[Cl-]` (some centres unmarked) [Aubis(5-Bn)] was tested, and the IC50 [1, 2] was 0.072 ± 0.014 µM and the IC50 (Vero cell line) was 0.6 µM.

`Cc1cc(C)c(-[n+]2ccn(CCCO[C@H]3O[C@@H]4O[C@@]5(C)CCC6[C@H](C)CCC([C@H]3C)[C@]64OO5)[c]2[Au-][c]2n(CCCO[C@H]3O[C@@H]4O[C@@]5(C)CCC6[C@H](C)CCC([C@H]3C)[C@]64OO5)cc[n+]2-c2c(C)cc(C)cc2C)c(C)c1.[Cl-]` (some centres unmarked) [Aubis(3-Mes)] showed an IC50 [1, 2] of 0.061 ± 0.037 µM and an IC50 (Vero cell line) of 0.5 µM.

`C[C@@H]1CCC2[C@@H](C)[C@@H](OCCCCn3cc[n+](-c4ccc5ccccc5n4)[c]3[Au-][c]3n(CCCCO[C@H]4O[C@@H]5O[C@@]6(C)CCC7[C@H](C)CCC([C@H]4C)[C@]75OO6)cc[n+]3-c3ccc4ccccc4n3)O[C@@H]3O[C@@]4(C)CCC1[C@@]23OO4.[Cl-]` (some centres unmarked) [Aubis(4-Quin)] was tested, and the IC50 [1, 2] was 0.083 ± 0.031 µM.

In the case of `Cc1cc(C)c(-[n+]2ccn(CCCO[C@H]3O[C@@H]4O[C@@]5(C)CCC6[C@H](C)CCC([C@H]3C)[C@]64OO5)c2)c(C)c1` (stereo partly drawn) [L3-Mes, 3′-Mesityl-1′-[10β-(20-propoxy)dihydroartemisinin]1H-imidazol-3-ium bromide], the IC50 [1, 3] is reported as 0.655 ± 0.053 µM.

`C[C@@H]1CCC2[C@@H](C)[C@@H](OCCCCCn3cc[n+](-c4ccc5ccccc5n4)c3)O[C@@H]3O[C@@]4(C)CCC1[C@@]23OO4` (stereo partly drawn) [L5-Quin, 3′-Quinolin-2-yl-1′-[10β-(22-pentoxy)dihydroartemisinin]1H-imidazol-3-ium bromide] showed an IC50 [1, 3] of 0.226 ± 0.029 µM.

Work on `C[C@@H]1CCC2[C@@H](C)[C@@H](OCCCn3cc[n+](-c4ccc5ccccc5n4)c3)O[C@@H]3O[C@@]4(C)CCC1[C@@]23OO4` (stereo partly drawn) [L3-Quin, 3′-Quinolin-2-yl-1′-[10β-(20-propoxy)dihydroartemisinin]1H-imidazol-3-ium bromide] yielded an IC50 [1, 3] of 0.33 ± 0.069 µM.

Work on `C[C@@H]1CCC2[C@@H](C)[C@@H](OCCCCn3cc[n+](Cc4ccccc4)c3)O[C@@H]3O[C@@]4(C)CCC1[C@@]23OO4` (stereo partly drawn) [L4-Bn, 3′-Benzyl-1′-[10β-(21-butoxy)dihydroartemisinin]1H-imidazol-3-ium bromide] yielded an IC50 [1, 3] of 0.326 ± 0.044 µM.
